Test results as given in US10738002B2, “Halogenated benzotropolones as ATG4B inhibitors” (Universiteit Antwerpen, priority 2016, dated 2020).
Where two headings read alike, the source gives them in different places.

Assays:
Jurkat T-cells = test: CYTO-ID-based phenotypical screening for autophagy inhibition; type: cell-based; details: Homo sapiens, tested at 10 mM concentration + 10 μM everolimus, everolimus-treated = 1 (normalized), control 0.37, read-out: CYTOID assay (autophagy relative to the everolimus-treated group)
Procedure: Final compounds were screened for autophagy/Atg4B inhibition in 3 different assays: a gel-based screening for Atg4B inhibition, a CYTO-ID-based phenotypical screening for autophagy inhibition and a luciferase reporter assay for assessment of intracellular Atg4B inhibition. Initially, all compounds were evaluated using the SDS-PAGE-based screening assay. Each test compound was incubated with [LC3B-GST], a fusion protein of LC3B and glutathione-S-transferase, and Atg4B in Tris-HCl buffer for a fixed time period. Afterwards, residual fusion protein and cleavage products were separated by gel electrophoresis and quantified using optical densitometry. Based on the % of uncleaved substrate, compound activity was expressed as % enzyme inhibition at 500 μM compound concentration. A set of compounds was then subjected to a CYTO ID-based assay (Stankov et al., 2014). This assay is based on selective labelling of autophagic vacuoles in Jurkat T-cells. Quantification of the stained autophagic compartments can then be used for assessment of autophagy modulation. Autophagy induction was obtained by addition of 10 μM everolimus in EtOH in the presence of 10 μM test compound and autophagy inhibition was monitored as a decline in autophagic vacuoles and the corresponding fluorescent signal. […]

HsAtg4B = target: T1, HsAtg4B (Homo sapiens, UniProt Q9Y4P1); test: SDS-PAGE-based screening assay for Atg4B inhibition (cleavage of LC3B-GST); type: biochemical; details: 500 μM compound concentration; LC3B-GST substrate, 6 minutes; read-out: SDS-PAGE Enzyme inhibition (%)
T1 sequence (Q9Y4P1 1-393): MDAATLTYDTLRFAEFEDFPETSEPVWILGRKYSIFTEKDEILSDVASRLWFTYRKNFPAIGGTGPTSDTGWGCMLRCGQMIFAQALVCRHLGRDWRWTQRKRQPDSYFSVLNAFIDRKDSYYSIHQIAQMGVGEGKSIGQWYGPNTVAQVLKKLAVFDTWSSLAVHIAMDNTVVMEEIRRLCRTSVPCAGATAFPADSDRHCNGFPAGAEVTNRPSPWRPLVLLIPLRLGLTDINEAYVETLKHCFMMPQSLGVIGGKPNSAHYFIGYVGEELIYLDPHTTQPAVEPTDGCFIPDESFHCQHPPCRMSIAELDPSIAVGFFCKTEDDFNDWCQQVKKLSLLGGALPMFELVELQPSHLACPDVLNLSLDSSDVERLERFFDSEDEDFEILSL

[1] = Metabolic stability in mouse microsomes; type: in vitro ADME; details: for recovery at 30 min, 10 µM: mouse liver microsomes, read-out: Microsomal stability (mouse) recovery of parent compound after 30 min (%); for microsomal stability, comparison in words: mouse microsomes
Procedure: A 5 mM compound solution was prepared in DMSO. A mixture of 713 μL milliQ water (Milli-Q Direct 8, Merck Millipore), 200 μL 0.5 M phosphate buffer (BD Diagnostic Systems, 257385), 50 μL NADPH regenerating system solution A (BD Biosciences), 10 μL NADPH regenerating system solution B (BD Biosciences) and 2 μL compound solution was prepared and heated for 5 min at 37° C. 25 μL of liver microsomes (Corning B.V. Life Sciences) was added to the mixture and 20 μL samples were withdrawn at 0, 15, 30, 60, 120, 240 and 360 minutes. 80 μL (4×20 μL) of cold acetonitrile (Sigma-Aldrich) was added to the samples on ice for 10 minutes. Afterwards, the mixtures were centrifuged at 13000 rpm for 5 minutes at 4° C. A volume of 75 μL of an acetonitrile/water (10/90) mixture was added to 25 μL supernatant and the obtained samples were analyzed by LC-MS/MS in triplicate.

[2] = Plasma stability in mouse plasma; type: in vitro ADME; details: for recovery at 1 h, 50 µM: Non Swiss Albino, 37° C., read-out: Plasma stability (mouse) recovery of parent compound after lh (%); for plasma stability compared to the non-halogenated analogues: comparison in words
Procedure: A 10 mM compound solution was prepared in DMSO (Acros). A 5 μL aliquot was added to 995 μL of mouse plasma (Non Swiss Albino Mouse Plasma, sodium citrate, DivBioScience, IMS-N) to obtain a final solution of 50 μM. The mixture was gently shaken for 6 hours at 37° C. Aliquots of 100 μL were taken at various time points (0, 30, 60, 120, 180, 360 minutes) and diluted with 400 μL of cold methanol (Sigma-Aldrich) (stored at 4° C.). The suspension was centrifuged at 14000 rpm for 5 minutes. Afterwards, 50 μL of the supernatant was diluted with 950 μL of methanol and analyzed with LC-MS/MS (Waters Acquity H-class UPLC system with ion trap mass spectrometer, Bruker Daltonics Esquire 3000 plus, and Agilent 1100 Series LC system). The samples were analyzed in triplicate. A standard curve was plotted using compound concentrations of 3.12-100 μM in mouse plasma.

autophagy [3] = test: Cellular screening assay for autophagy inhibitors (in our hands); type: cell-based
autophagy [4] = details: cited from earlier work

| recovery at 30 min, 10 µM ([1]; 37° C.) [%] | microsomal stability, comparison in words [1] | recovery at 1 h, 50 µM [2] [%] | plasma stability compared to the non-halogenated analogues [2] | Compound | further results |
| --- | --- | --- | --- | --- | --- |
|  |  |  |  | Cn1cnc(N)c2ncnc1-2 [Compound 3-MA, 3-Methyladenine, reference compound] | activity at 10000 µM (Jurkat T-cells): 57% |
|  |  |  |  | NC(=O)c1cc(O)c(=O)c2c(O)c(O)c(F)cc2c1 [Compound 31, 2-fluoro-3,4,6-trihydroxy-5-oxo-5H-benzo[7]annulene-8-carboxamide] | inhibition at 500 µM (HsAtg4B): 39.9% |
| 100 | substantial increase | 19 ± 1 | substantial increase | O=C(O)c1cc(O)c(=O)c2c(O)c(O)c(Br)cc2c1 [Compound 36, 2-bromo-3,4,6-trihydroxy-5-oxo-5H-benzo[7]annulene-8-carboxylic acid] |  |
| 23 ± 7 | substantial increase | 87 ± 4 | substantial increase | CCCCOC(=O)c1cc(O)c(=O)c2c(O)c(O)c(Br)cc2c1 [Compound 40, Butyl 2-bromo-3,4,6-trihydroxy-5-oxo-5H-benzo[7]annulene-8-carboxylate] |  |
|  |  | 0 |  | O=C(O)c1cc(O)c(=O)c2c(O)c(O)ccc2c1 [Shu et al.] | recovery at 30 min, 10 µM ([1]; value obtained using linear interpolation): 100%; activity in a cellular screening assay for autophagy inhibitors (autophagy [3]): did not show activity; autophagy inhibition reported by Shu et al. (autophagy [4]): weak autophagy inhibitor; in cellulo autophagy inhibition (reported) (autophagy [4]; in cellulo): no in cellulo autophagy inhibition |
